Measured values taken from PubChem BioAssay (NCI).
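Five compound concentrations were applied to cells in 96-well plates for 48 hours; endpoints were derived by simple linear interpolation of the resulting dose-response curve. At the TGI there is no net growth.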

What was measured:
Experiment in all cases: inhibition of tumour cell growth, NCI panel, 48 h
SNB-75 CNS = system: SNB-75 CNS
DU-145 prostate = system: DU-145 prostate
MDA-MB-231 breast = system: MDA-MB-231 breast
MDA-N = system: MDA-N
T-47D breast = system: T-47D breast

SMILES | TGI (SNB-75 CNS) | TGI (DU-145 prostate) | TGI (MDA-MB-231 breast) | TGI (MDA-N) | TGI (T-47D breast)
Cn1c(=O)c(C#N)c(O)c2cc3ccccc3nc21 | > 100 µM |  |  |  | 
COc1cc(O)c2c(=O)c(O)c(-c3ccc(O)c(O)c3)oc2c1 |  | 25.5 µM | 95.8 µM | > 100 µM | > 100 µM
